Source: ChEMBL document CHEMBL3600371, “Design and synthesis of imidazole N-H substituted amide prodrugs as inhibitors of hepatitis C virus replication” (Bioorg Med Chem Lett, 2015)

Columns and labels:
Hepatitis C virus [1] = assay: Antiviral activity against HCV genotype 1b replicon infected in human HuH7 cells assessed as inhibition of viral RNA replication by luciferase reporter assay; type: functional, organism-based, Hepacivirus hominis; conditions: Huh-7
[2] = Cmax in Sprague-Dawley rat at 5 mg/kg, po; type: ADME, organism-based; parameters: dose 5 mg/kg, route oral; conditions: in vivo
[3] = Stability of the compound in water at pH 7; type: physicochemical; conditions: buffer
[4] = AUC (0 to 8 hrs) in Sprague-Dawley rat at 5 mg/kg, po; type: ADME, organism-based; parameters: time < 8 hr, dose 5 mg/kg, route oral; conditions: in vivo
[5] = Mean residence time in Sprague-Dawley rat at 5 mg/kg, po; type: ADME, organism-based; conditions: in vivo
[6] = Tmax in Sprague-Dawley rat at 5 mg/kg, po; type: ADME, organism-based; conditions: in vivo
[7] = Half life in Sprague-Dawley rat at 5 mg/kg, po; type: ADME, organism-based; conditions: in vivo
Hepatitis C virus [8] = assay: microbe, parasite or virus in culture; conditions: JFH-1, Huh-7
Description: Antiviral activity against HCV genotype 1b JFH-1 infected in human HuH7 cells assessed as inhibition of viral replication

[9] = Stability of the compound in water at pH 2; type: physicochemical; conditions: buffer
Rattus norvegicus [10] = assay: Drug level in Sprague-Dawley rat treated with ((S,S)-5,5'-([1,1'-Biphenyl]-4,4'-diyl)bis(2-((S)-1-((S)-2-((methoxycarbonyl)amino)-3-methylbutanoyl)pyrrolidin-2-yl)-1H-imidazole-5,1-diyl))bis(2-oxoethane-2,1-diyl)diacetate at 5 mg/kg, po measured over 9 hrs; type: ADME, organism-based; conditions: in vivo
[11] = Stability of the compound in blood (unknown origin); type: ADME, tissue-based
[12] = AUC (0 to infinity) in Sprague-Dawley rat at 5 mg/kg, po; type: ADME, organism-based; parameters: dose 5 mg/kg, route oral, time infinity; conditions: in vivo
Hepatitis C virus [13] = assay: Antiviral activity against HCV genotype 1 in patient assessed as virological response rate; type: functional, Hepacivirus hominis
Rattus norvegicus [14] = assay: Cmax in Sprague-Dawley rat assessed as daclatasvir at 5 mg/kg, po; type: ADME, organism-based; parameters: dose 5 mg/kg, route oral; conditions: in vivo
Rattus norvegicus [15] = assay: Half life in Sprague-Dawley rat assessed as daclatasvir at 5 mg/kg, po; type: ADME, organism-based; conditions: in vivo
Rattus norvegicus [16] = assay: Tmax in Sprague-Dawley rat assessed as daclatasvir at 5 mg/kg, po; type: ADME, organism-based; conditions: in vivo
Rattus norvegicus [17] = assay: Mean residence time in Sprague-Dawley rat assessed as daclatasvir at 5 mg/kg, po; type: ADME, organism-based; conditions: in vivo
[18] = Half life in blood (unknown origin); type: ADME, tissue-based
Rattus norvegicus [19] = assay: AUC (0 to 8 hrs) in Sprague-Dawley rat assessed as daclatasvir at 5 mg/kg, po; type: ADME, organism-based; parameters: time < 8 hr, dose 5 mg/kg, route oral; conditions: in vivo
Rattus norvegicus [20] = assay: Prodrug conversion in Sprague-Dawley rat assessed as formation of daclatasvir at 5 mg/kg, po measured over 9 hrs; type: ADME, organism-based; conditions: in vivo
Rattus norvegicus [21] = assay: AUC (0 to infinity) in Sprague-Dawley rat assessed as daclatasvir at 5 mg/kg, po; type: ADME, organism-based; parameters: dose 5 mg/kg, time infinity, route oral; conditions: in vivo

Compound: CCC(=O)n1c(-c2ccc(-c3ccc(-c4cnc([C@@H]5CCCN5C(=O)[C@@H](NC(=O)OC)C(C)C)n4C(=O)CC)cc3)cc2)cnc1[C@@H]1CCCN1C(=O)[C@@H](NC(=O)OC)C(C)C
- EC50 (Hepatitis C virus [1]): 39 nM

Compound: COC(=O)N[C@H](C(=O)N1CCC[C@H]1c1nc(-c2ccc(-c3ccc(-c4c[nH]c([C@@H]5CCCN5C(=O)[C@@H](NC(=O)OC)C(C)C)n4)cc3)cc2)c[nH]1)C(C)C
- Cmax [2]: 0.484 µg/mL
- Stability [3]: Stable
- AUC(0-t) at 8 h [4]: 3.21 µg·h/mL
- MRT [5]: 3.43 h
- Tmax [6]: 3.01 h
- half-life [7]: 1.66 h
- EC50 (Hepatitis C virus [8]): 0.028 nM
- Stability [9]: Stable
- Drug metabolism (Rattus norvegicus [10]): metabolite_detected
- Stability [11]: Stable
- AUC(0-inf) [12]: 3.32 µg·h/mL

Compound: COC(=O)N[C@H](C(=O)N1CCC[C@H]1c1ncc(-c2ccc(-c3ccc(-c4cnc([C@@H]5CCCN5C(=O)[C@@H](NC(=O)OC)C(C)C)n4C(=O)Cc4ccccc4)cc3)cc2)n1C(=O)Cc1ccccc1)C(C)C
- EC50 (Hepatitis C virus [1]): 687 nM

Compound: CCCCCC(=O)n1c(-c2ccc(-c3ccc(-c4cnc([C@@H]5CCCN5C(=O)[C@@H](NC(=O)OC)C(C)C)n4C(=O)CCCCC)cc3)cc2)cnc1[C@@H]1CCCN1C(=O)[C@@H](NC(=O)OC)C(C)C
- EC50 (Hepatitis C virus [1]): 324 nM

Compound: COC(=O)N[C@H](C(=O)N1CCC[C@H]1c1ncc(-c2ccc(-c3ccc(-c4cnc([C@@H]5CCCN5C(=O)[C@@H](NC(=O)OC)C(C)C)n4C(C)=O)cc3)cc2)n1C(C)=O)C(C)C
- EC50 (Hepatitis C virus [1]): 12 nM

Compound: COC(=O)N[C@H](C(=O)N1CCC[C@H]1c1ncc(-c2ccc(-c3ccc(-c4cnc([C@@H]5CCCN5C(=O)[C@@H](NC(=O)OC)C(C)C)n4C(=O)CCC4CCCC4)cc3)cc2)n1C(=O)CCC1CCCC1)C(C)C
- EC50 (Hepatitis C virus [1]): 195 nM

Compound: COC(=O)N[C@H](C(=O)N1CCC[C@H]1c1ncc(-c2ccc(-c3ccc(-c4cnc([C@@H]5CCCN5C(=O)[C@@H](NC(=O)OC)C(C)C)n4C(=O)OC)cc3)cc2)n1C(=O)OC)C(C)C
- EC50 (Hepatitis C virus [1]): > 100000 nM

Compound: NC(=O)c1ncn([C@@H]2O[C@H](CO)[C@@H](O)[C@H]2O)n1 [RIBAVIRIN]
- Activity (Hepatitis C virus [13]): <50%

Compound: COC(=O)N[C@H](C(=O)N1CCC[C@H]1c1ncc(-c2ccc(-c3ccc(-c4cnc([C@@H]5CCCN5C(=O)[C@@H](NC(=O)OC)C(C)C)n4C(=O)CC(C)(C)C)cc3)cc2)n1C(=O)CC(C)(C)C)C(C)C
- EC50 (Hepatitis C virus [1]): > 100000 nM

Compound: CCOC(=O)n1c(-c2ccc(-c3ccc(-c4cnc([C@@H]5CCCN5C(=O)[C@@H](NC(=O)OC)C(C)C)n4C(=O)OCC)cc3)cc2)cnc1[C@@H]1CCCN1C(=O)[C@@H](NC(=O)OC)C(C)C
- EC50 (Hepatitis C virus [1]): > 100000 nM

Compound: COC(=O)N[C@H](C(=O)N1CCC[C@H]1c1ncc(-c2ccc(-c3ccc(-c4cnc([C@@H]5CCCN5C(=O)[C@@H](NC(=O)OC)C(C)C)n4C(=O)OC(C)(C)C)cc3)cc2)n1C(=O)OC(C)(C)C)C(C)C
- EC50 (Hepatitis C virus [1]): > 100000 nM

Compound: CCCC(=O)n1c(-c2ccc(-c3ccc(-c4cnc([C@@H]5CCCN5C(=O)[C@@H](NC(=O)OC)C(C)C)n4C(=O)CCC)cc3)cc2)cnc1[C@@H]1CCCN1C(=O)[C@@H](NC(=O)OC)C(C)C
- EC50 (Hepatitis C virus [1]): 85 nM

Compound: CCCCCCC(=O)n1c(-c2ccc(-c3ccc(-c4cnc([C@@H]5CCCN5C(=O)[C@@H](NC(=O)OC)C(C)C)n4C(=O)CCCCCC)cc3)cc2)cnc1[C@@H]1CCCN1C(=O)[C@@H](NC(=O)OC)C(C)C
- EC50 (Hepatitis C virus [1]): 542 nM

Compound: COC(=O)N[C@H](C(=O)N1CCC[C@H]1c1ncc(-c2ccc(-c3ccc(-c4cnc([C@@H]5CCCN5C(=O)[C@@H](NC(=O)OC)C(C)C)n4C(=O)CC4CCCCC4)cc3)cc2)n1C(=O)CC1CCCCC1)C(C)C
- EC50 (Hepatitis C virus [1]): 110 nM

Compound: COC(=O)N[C@H](C(=O)N1CCC[C@H]1c1ncc(-c2ccc(-c3ccc(-c4cnc([C@@H]5CCCN5C(=O)[C@@H](NC(=O)OC)C(C)C)n4C(=O)OC(C)C)cc3)cc2)n1C(=O)OC(C)C)C(C)C
- EC50 (Hepatitis C virus [1]): > 100000 nM

Compound: COC(=O)N[C@H](C(=O)N1CCC[C@H]1c1ncc(-c2ccc(-c3ccc(-c4cnc([C@@H]5CCCN5C(=O)[C@@H](NC(=O)OC)C(C)C)n4C(=O)c4ccc(Cl)cc4)cc3)cc2)n1C(=O)c1ccc(Cl)cc1)C(C)C
- EC50 (Hepatitis C virus [1]): 77 nM

Compound: COC(=O)N[C@H](C(=O)N1CCC[C@H]1c1ncc(-c2ccc(-c3ccc(-c4cnc([C@@H]5CCCN5C(=O)[C@@H](NC(=O)OC)C(C)C)n4C(=O)OCC(C)=O)cc3)cc2)n1C(=O)OCC(C)=O)C(C)C
- EC50 (Hepatitis C virus [1]): > 100000 nM

Compound: COC(=O)N[C@H](C(=O)N1CCC[C@H]1c1ncc(-c2ccc(-c3ccc(-c4cnc([C@@H]5CCCN5C(=O)[C@@H](NC(=O)OC)C(C)C)n4C(=O)C(C)(C)C)cc3)cc2)n1C(=O)C(C)(C)C)C(C)C
- EC50 (Hepatitis C virus [1]): > 100000 nM

Compound: COC(=O)N[C@H](C(=O)N1CCC[C@H]1c1ncc(-c2ccc(-c3ccc(-c4cnc([C@@H]5CCCN5C(=O)[C@@H](NC(=O)OC)C(C)C)n4C(=O)CC(C)CC(C)(C)C)cc3)cc2)n1C(=O)CC(C)CC(C)(C)C)C(C)C (some centres not stated)
- EC50 (Hepatitis C virus [1]): > 100000 nM

Compound: COC(=O)N[C@H](C(=O)N1CCC[C@H]1c1ncc(-c2ccc(-c3ccc(-c4cnc([C@@H]5CCCN5C(=O)[C@@H](NC(=O)OC)C(C)C)n4C(=O)CCC4CCCCC4)cc3)cc2)n1C(=O)CCC1CCCCC1)C(C)C
- EC50 (Hepatitis C virus [1]): 124 nM

Compound: COC(=O)N[C@H](C(=O)N1CCC[C@H]1c1ncc(-c2ccc(-c3ccc(-c4cnc([C@@H]5CCCN5C(=O)[C@@H](NC(=O)OC)C(C)C)n4C(=O)COC(C)=O)cc3)cc2)n1C(=O)COC(C)=O)C(C)C
- Stability [3]: Stable
- EC50 (Hepatitis C virus [1]): 0.08 nM
- Cmax (Rattus norvegicus [14]): 0.341 µg/mL
- t1/2 (Rattus norvegicus [15]): 2.93 h
- Tmax (Rattus norvegicus [16]): 4.05 h
- MRT (Rattus norvegicus [17]): 4.01 h
- half-life [18]: < 0.5 h
- Stability [9]: Stable
- AUC (Rattus norvegicus [19]): 3.33 µg·h/mL
- Drug metabolism (Rattus norvegicus [20]): metabolite_detected
- AUC (Rattus norvegicus [21]): 3.44 µg·h/mL

Compound: COC(=O)N[C@H](C(=O)N1CCC[C@H]1c1ncc(-c2ccc(-c3ccc(-c4cnc([C@@H]5CCCN5C(=O)[C@@H](NC(=O)OC)C(C)C)n4C(=O)CCc4ccccc4)cc3)cc2)n1C(=O)CCc1ccccc1)C(C)C
- EC50 (Hepatitis C virus [1]): 988 nM

Compound: COC(=O)N[C@H](C(=O)N1CCC[C@H]1c1ncc(-c2ccc(-c3ccc(-c4cnc([C@@H]5CCCN5C(=O)[C@@H](NC(=O)OC)C(C)C)n4C(=O)c4ccccc4)cc3)cc2)n1C(=O)c1ccccc1)C(C)C
- EC50 (Hepatitis C virus [1]): 155 nM

Compound: COC(=O)N[C@H](C(=O)N1CCC[C@H]1c1ncc(-c2ccc(-c3ccc(-c4cnc([C@@H]5CCCN5C(=O)[C@@H](NC(=O)OC)C(C)C)n4C(=O)c4ccc(C)cc4)cc3)cc2)n1C(=O)c1ccc(C)cc1)C(C)C
- EC50 (Hepatitis C virus [1]): 231 nM

Compound: COC(=O)N[C@H](C(=O)N1CCC[C@H]1c1ncc(-c2ccc(-c3ccc(-c4cnc([C@@H]5CCCN5C(=O)[C@@H](NC(=O)OC)C(C)C)n4C(=O)C(C)C)cc3)cc2)n1C(=O)C(C)C)C(C)C
- EC50 (Hepatitis C virus [1]): 131 nM

Compound: CCCCC(=O)n1c(-c2ccc(-c3ccc(-c4cnc([C@@H]5CCCN5C(=O)[C@@H](NC(=O)OC)C(C)C)n4C(=O)CCCC)cc3)cc2)cnc1[C@@H]1CCCN1C(=O)[C@@H](NC(=O)OC)C(C)C
- EC50 (Hepatitis C virus [1]): 231 nM

Compound: CCCOC(=O)n1c(-c2ccc(-c3ccc(-c4cnc([C@@H]5CCCN5C(=O)[C@@H](NC(=O)OC)C(C)C)n4C(=O)OCCC)cc3)cc2)cnc1[C@@H]1CCCN1C(=O)[C@@H](NC(=O)OC)C(C)C
- EC50 (Hepatitis C virus [1]): > 100000 nM
